Test results published in US9567345B2, “Pharmaceutically active pyrazolo-triazine derivatives” (LEAD DISCOVERY CENTER GMBH, priority 2012, dated 2017).
Like-named read-outs stand apart in the source and are kept apart here.

What was measured:
Format in all cases: biochemical
CDK2/CycA = molecular target: T1, CDK2/CycA (Homo sapiens, UniProt P24941); experiment: CDK2 Enzymatic Activity Assay (Lance Kinase Activity Assay, FRET); conditions: for IC50: Table 5B, class symbols per IC50 [nM] ranges of b581, read-out: CDK2: Selectivity of CDK7 inhibition over CDK2 inhibition
T1 construct: purchased Proqinase
Procedure: This protocol describes how the Lance Kinase Activity Assay was performed to determine IC50 values of compounds of general formula (I) against CDK/Cyclin complexes. The principle behind this enzymatic assay is based upon the phosphorylation of the Ulight-Peptide Substrat. It is detected by using a specific EU-labeled anti-phospho peptide antibody.
Binding of an inhibitor to the kinase prevents phosphorylation of the Ulight-MBP Substrat, resulting in a loss of FRET.
CDK2 Enzymatic Activity Assay
The compounds of general formula (I) exemplary summarized in Table 1 were diluted from a 10 mM DMSO stock solution 1:10 in a total volume of 15 μl DMSO. This compound predilution was then serial diluted 1:3 over 8 steps in DMSO and briefly spun down. Each compound solution was now diluted 1:20 in Enzymatic Buffer (HEPES: 50 mM, pH: 7.5; MgCl2: 10 mM; EGTA: 1 mM; DTT: 2 mM; Tween-20: 0.01%), mixed thoroughly and spun down.
For positive controls, 2 μl of DMSO working solution were mixed with 6 μl CDK2/CycA/substrate working solution and 2 μl ATP working solution. Positive and negative controls were calculated from at least 8 different wells. The 384 well plates were mixed in a Teleshaker plate mixer (Beckman Coulter, Brea, Calif., USA) at 2000 rpm for 40 sec, and incubated for 1 h at room temperature before addition of 10 μl LANCE Detection Buffer (EDTA: […]; Eu-Anti-P-MBP: 4 nM) per well. Plates were mixed in a Teleshaker plate mixer (Beckman Coulter, Brea, Calif., USA) at 2000 rpm for 40 sec, followed by incubation with Detection Buffer for 1 h, and reading. […] IC50 values were determined from the sigmoidal dose response curves with the software Quattro Workflow (Quattro GmbH, Munich, Germany).

CDK7/CycH/Mat1 = CDK7/CycH/Mat1 (Homo sapiens, UniProt P50613); experiment: CDK7 Enzymatic Activity Assay (Lance Kinase Activity Assay, FRET)
Chain of CDK7/CycH/Mat1 (P50613 whole entry): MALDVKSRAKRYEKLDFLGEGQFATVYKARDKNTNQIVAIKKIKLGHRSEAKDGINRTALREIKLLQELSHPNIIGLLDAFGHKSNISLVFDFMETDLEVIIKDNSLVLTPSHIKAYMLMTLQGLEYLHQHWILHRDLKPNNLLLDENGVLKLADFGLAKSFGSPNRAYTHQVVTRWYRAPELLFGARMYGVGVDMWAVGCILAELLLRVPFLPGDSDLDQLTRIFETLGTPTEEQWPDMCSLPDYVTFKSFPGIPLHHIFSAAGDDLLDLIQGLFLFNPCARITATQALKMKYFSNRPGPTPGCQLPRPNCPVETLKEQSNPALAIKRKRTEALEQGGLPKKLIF
Outline: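 Ulight-MBP peptide phosphorylation by CDK7/CycH/Mat1 in HEPES 50 mM pH 7.5, MgCl2, EGTA, DTT, Tween-20; 1 h at room temperature, then EDTA stop with Eu-anti-phospho-MBP antibody for 1 h and TR-FRET read. Compounds in 8-point 1:3 DMSO series; IC50 from sigmoidal dose-response fit.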

CDK9/Cyclin T1 = CDK9/Cyclin T1 (Homo sapiens, UniProt P50750); experiment: CDK9 Enzymatic Activity Assay (Lance Kinase Activity Assay, FRET); conditions: for IC50: Table 5B, class symbols per IC50 [nM] ranges of b581, read-out: CDK9: Selectivity of CDK7 inhibition over CDK9 inhibition
Chain of CDK9/Cyclin T1 (P50750 whole entry): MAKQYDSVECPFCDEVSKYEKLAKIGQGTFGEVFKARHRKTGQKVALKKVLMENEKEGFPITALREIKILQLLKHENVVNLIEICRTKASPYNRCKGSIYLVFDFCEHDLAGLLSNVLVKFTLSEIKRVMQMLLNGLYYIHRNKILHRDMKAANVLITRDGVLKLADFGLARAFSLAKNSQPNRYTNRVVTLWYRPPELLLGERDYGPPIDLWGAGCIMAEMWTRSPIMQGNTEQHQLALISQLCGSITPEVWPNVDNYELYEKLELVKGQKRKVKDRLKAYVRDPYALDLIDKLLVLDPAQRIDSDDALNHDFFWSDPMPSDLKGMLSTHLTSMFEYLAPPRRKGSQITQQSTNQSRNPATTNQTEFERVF
Chain of CDK9/Cyclin T1 (O60563 whole entry partner): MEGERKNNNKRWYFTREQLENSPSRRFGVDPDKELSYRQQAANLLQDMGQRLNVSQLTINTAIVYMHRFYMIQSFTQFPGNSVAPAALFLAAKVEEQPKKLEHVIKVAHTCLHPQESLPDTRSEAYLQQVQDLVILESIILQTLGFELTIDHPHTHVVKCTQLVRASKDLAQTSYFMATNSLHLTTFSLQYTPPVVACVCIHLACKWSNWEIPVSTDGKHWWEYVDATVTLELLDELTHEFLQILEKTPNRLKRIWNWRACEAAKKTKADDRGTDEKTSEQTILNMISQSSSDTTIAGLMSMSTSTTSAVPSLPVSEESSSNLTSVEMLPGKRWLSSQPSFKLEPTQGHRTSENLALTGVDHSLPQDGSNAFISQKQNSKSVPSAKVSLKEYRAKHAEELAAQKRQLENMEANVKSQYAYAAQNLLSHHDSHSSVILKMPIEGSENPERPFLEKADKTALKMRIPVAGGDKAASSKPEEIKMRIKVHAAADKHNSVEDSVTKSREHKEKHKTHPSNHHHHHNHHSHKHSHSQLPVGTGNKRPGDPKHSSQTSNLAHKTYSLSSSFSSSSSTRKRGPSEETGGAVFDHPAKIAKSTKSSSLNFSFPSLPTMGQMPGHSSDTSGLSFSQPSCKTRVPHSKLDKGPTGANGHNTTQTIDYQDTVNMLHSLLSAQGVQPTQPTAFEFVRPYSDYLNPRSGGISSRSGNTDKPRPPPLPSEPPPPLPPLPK
Outline: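 CDK9/cyclin T1 phosphorylation of a ULight-MBP peptide was run for 1 h at room temperature in pH 7.5 HEPES buffer with MgCl2, EGTA, DTT and Tween-20. It was followed by 1 h with Eu-anti-phospho-MBP antibody (4 nM) in EDTA detection buffer. TR-FRET loss gave IC50 from 8-point, 1:3 sigmoidal dose-response curves.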

[1] = CDK7/CycH/Mat1, 25 μM ATP final, class ranges, read-out: CDK7: IC50 [nM] for CDK7 inhibition

IC50 (CDK2/CycA) | IC50 (CDK7/CycH/Mat1; [1]) | IC50 (CDK9/Cyclin T1) | Selectivity CDK7 over CDK2 (CDK2/CycA; Table 6) | IC50 (CDK7/CycH/Mat1; Table 6, read-out: IC50 CDK7) | Selectivity CDK7 over CDK9 (CDK9/Cyclin T1; Table 6) | SMILES
50 to 500 nM | 10 to 25 nM | 500 to 2500 nM |  |  |  | CC(C)c1cnn2c(NCc3cccc4c3OCCCO4)nc(O[C@@H]3CCCNC3)nc12 [(VII-116), (R)-N-((3,4-dihydro-2H-benzo[b][1,4]dioxepin-6-yl)methyl)-8-isopropyl-2-(piperidin-3-yloxy)pyrazolo[1,5-a][1,3,5]triazin-4-amine]
50 to 500 nM | < 5 nM | > 2500 nM |  |  |  | CC(C)c1cnn2c(NCc3ccccc3S(=O)(=O)N3CCCC3)nc(O[C@@H]3CCCNC3)nc12 [(VII-106), (R)-8-isopropyl-2-(piperidin-3-yloxy)-N-(2-(pyrrolidin-1-ylsulfonyl)benzyl)pyrazolo[1,5-a][1,3,5]triazin-4-amine]
> 2500 nM | < 5 nM | > 2500 nM |  |  |  | CC(C)c1cnn2c(NCc3ccccc3-n3cccn3)nc(S(=O)(=O)C3CCNCC3)nc12 [(X-7), N-(2-(1H-pyrazol-1-yl)benzyl)-8-isopropyl-2-(piperidin-4-ylsulfonyl)pyrazolo[1,5-a][1,3,5]triazin-4-amine]
50 to 500 nM | < 5 nM | > 2500 nM | 394 fold | < 5 nM | 3255 fold | CC(C)c1cnn2c(NCc3ccccc3-c3nnnn3C)nc(O[C@@H]3CCCNC3)nc12 [(VII-29), (R)-8-isopropyl-N-(2-(1-methyl-1H-tetrazol-5-yl)benzyl)-2-(piperidin-3-yloxy)pyrazolo[1,5-a][1,3,5]triazin-4-amine]
50 to 500 nM | < 5 nM | 50 to 500 nM |  |  |  | CC(C)c1cnn2c(NCc3ccccc3-c3cccs3)nc([S+]([O-])C3CCNCC3)nc12 (stereo not drawn) [(X-2), 8-isopropyl-2-(piperidin-4-ylsulfinyl)-N-(2-(thiophen-2-yl)benzyl)pyrazolo[1,5-a][1,3,5]triazin-4-amine]
500 to 2500 nM | 5 to 10 nM | 500 to 2500 nM |  |  |  | CC(C)c1cnn2c(NCc3ccccc3-c3ccccc3)nc(O[C@@H]3CCNC3)nc12 [(VII-08), (R)-N-([1,1′-biphenyl]-2-ylmethyl)-8-isopropyl-2-(pyrrolidin-3-yloxy)pyrazolo[1,5-a][1,3,5]triazin-4-amine]
> 2500 nM | > 25 nM | > 2500 nM |  |  |  | CC(C)c1cnn2c(NCc3ccccc3-n3cccn3)nc(NCCCN3CCOCC3)nc12 [(VIII-044), N4-(2-(1H-pyrazol-1-yl)benzyl)-8-isopropyl-N2-(3-morpholinopropyl)pyrazolo[1,5-a][1,3,5]triazine-2,4-diamine]
50 to 500 nM | < 5 nM | 50 to 500 nM |  |  |  | CC(C)c1cnn2c(NCc3ccccc3-n3cc(Cl)cn3)nc(O[C@@H]3CCCNC3)nc12 [(VII-52), (R)-N-(2-(4-chloro-1H-pyrazol-1-yl)benzyl)-8-isopropyl-2-(piperidin-3-yloxy)pyrazolo[1,5-a][1,3,5]triazin-4-amine]
> 2500 nM | > 25 nM | > 2500 nM |  |  |  | CC(C)c1cnn2c(NCc3ccccc3-n3cccn3)nc(NCCN3CCCC3)nc12 [(VIII-040), N4-(2-(1H-pyrazol-1-yl)benzyl)-8-isopropyl-N2-(2-(pyrrolidin-1-yl)ethyl)pyrazolo[1,5-a][1,3,5]triazine-2,4-diamine]
> 2500 nM | > 25 nM | > 2500 nM |  |  |  | CC(C)c1cnn2c(NCc3ccccc3-n3cccn3)nc(CN3CC(N4CCC(F)(F)C4)C3)nc12 [(XXX-7), N-(2-(1H-pyrazol-1-yl)benzyl)-2-((3-(3,3-difluoropyrrolidin-1-yl)azetidin-1-yl)methyl)-8-isopropylpyrazolo[1,5-a][1,3,5]triazin-4-amine]
50 to 500 nM | < 5 nM | > 2500 nM |  |  |  | CNC(=O)c1ccccc1CNc1nc(O[C@@H]2CCCNC2)nc2c(C(C)C)cnn12 [(VII-108), (R)-2-(((8-isopropyl-2-(piperidin-3-yloxy)pyrazolo[1,5-a][1,3,5]triazin-4-yl)amino)methyl)-N-methylbenzamide]
> 2500 nM | 10 to 25 nM | > 2500 nM |  |  |  | CC(C)c1cnn2c(NCc3ccccc3-n3cccn3)nc(SC3CCNCC3)nc12 [(X-9), N-(2-(1H-pyrazol-1-yl)benzyl)-8-isopropyl-2-(piperidin-4-ylthio)pyrazolo[1,5-a][1,3,5]triazin-4-amine]
< 50 nM | 10 to 25 nM | > 2500 nM |  |  |  | CC(C)c1cnn2c(NCc3ccccc3C(F)(F)F)nc(OC3CCN(C)CC3)nc12 [(VII-58), 8-isopropyl-2-((1-methylpiperidin-4-yl)oxy)-N-(2-(trifluoromethyl)benzyl)pyrazolo[1,5-a][1,3,5]triazin-4-amine]
> 2500 nM | > 25 nM | > 2500 nM |  |  |  | Cc1ccc(CNc2nc(O[C@@H]3CCCNC3)nc3c(C(C)C)cnn23)c(OC2CCOC2)c1 (stereo partly drawn) [(VII-093), 8-isopropyl-N-(4-methyl-2-((tetrahydrofuran-3-yl)oxy)benzyl)-2-((R)-piperidin-3-yloxy)pyrazolo[1,5-a][1,3,5]triazin-4-amine]
500 to 2500 nM | < 5 nM | > 2500 nM |  |  |  | CC(C)Oc1ccccc1CNc1nc(O[C@@H]2CCNC2)nc2c(C(C)C)cnn12 [(VII-16), (R)-N-(2-isopropoxybenzyl)-8-isopropyl-2-(pyrrolidin-3-yloxy)pyrazolo[1,5-a][1,3,5]triazin-4-amine]
50 to 500 nM | < 5 nM | > 2500 nM |  |  |  | CC(C)c1cnn2c(NCc3ccccc3S(C)(=O)=O)nc(O[C@@H]3CCCNC3)nc12 [(VII-154), (R)-8-isopropyl-N-(2-(methylsulfonyl)benzyl)-2-(piperidin-3-yloxy)pyrazolo[1,5-a][1,3,5]triazin-4-amine]
> 2500 nM | < 5 nM | > 2500 nM |  |  |  | CCCNC(=O)Nc1ccccc1CNc1nc(O[C@@H]2CCCNC2)nc2c(C(C)C)cnn12 [(VII-110), (R)-1-(2-(((8-isopropyl-2-(piperidin-3-yloxy)pyrazolo[1,5-a][1,3,5]triazin-4-yl)amino)methyl)phenyl)-3-propylurea]
> 2500 nM | < 5 nM | > 2500 nM |  |  |  | CC(C)c1cnn2c(NCc3ccccc3-c3ccccc3)nc(OC3CCNCC3)nc12 [(VII-09), N-([1,1′-biphenyl]-2-ylmethyl)-8-isopropyl-2-(piperidin-4-yloxy)pyrazolo[1,5-a][1,3,5]triazin-4-amine]
50 to 500 nM | < 5 nM | 50 to 500 nM |  |  |  | COc1ccccc1CNc1nc(OC2CCN(C)CC2)nc2c(C(C)C)cnn12 [(VII-71), 8-isopropyl-N-(2-methoxybenzyl)-2-((1-methylpiperidin-4-yl)oxy)pyrazolo[1,5-a][1,3,5]triazin-4-amine]
> 2500 nM | > 25 nM | > 2500 nM |  |  |  | CC(C)c1cnn2c(NCc3ccccc3-n3cccn3)nc(N3CCC(N)C3)nc12 (stereo not drawn) [(VIII-054), N-(2-(1H-pyrazol-1-yl)benzyl)-2-(3-aminopyrrolidin-1-yl)-8-isopropylpyrazolo[1,5-a][1,3,5]triazin-4-amine]
< 50 nM | < 5 nM | 50 to 500 nM |  |  |  | CC(C)c1cnn2c(NCc3ccc(F)cc3-n3cccn3)nc(O[C@@H]3CCCNC3)nc12 [(VII-43), (R)-N-(4-fluoro-2-(1H-pyrazol-1-yl)benzyl)-8-isopropyl-2-(piperidin-3-yloxy)pyrazolo[1,5-a][1,3,5]triazin-4-amine]
50 to 500 nM | < 5 nM | > 2500 nM |  |  |  | CC(C)c1cnn2c(NCc3ccccc3-n3cncn3)nc(OC3CCN(C)CC3)nc12 [(VII-74), N-(2-(1H-1,2,4-triazol-1-yl)benzyl)-8-isopropyl-2-((1-methylpiperidin-4-yl)oxy)pyrazolo[1,5-a][1,3,5]triazin-4-amine]
> 2500 nM | > 25 nM | > 2500 nM |  |  |  | CC(C)c1cnn2c(NCc3ccccc3C3=CCCCC3)nc(O[C@@H]3CCCNC3)nc12 [(VII-117), (R)-8-isopropyl-2-(piperidin-3-yloxy)-N-((2′,3′,4′,5′-tetrahydro-[1,1′-biphenyl]-2-yl)methyl)pyrazolo[1,5-a][1,3,5]triazin-4-amine]
